Assay results as given in PMC7750190, “GapB Is Involved in Biofilm Formation Dependent on LrgAB but Not the SinI/R System in Bacillus cereus 0-9” (Frontiers in Microbiology, 2020).

Target: T1, GapB (Bacillus cereus, UniProt Q817G8)
T1 construct: gene BC_4583; full gapB gene in pET28a, GapB-His6, E. coli BL21 (DE3), Ni-IMAC and Superdex 200, 42 kDa by SDS-PAGE
Test: NAD(P)H production at […] nm
Assay type: biochemical
Conditions: 20 mM glyceraldehyde-3-phosphate, 50 mM Na2HPO4, 5 mM EDTA, pH 7.5, 37°C, 30 min

T1 sequence (Q817G8 entry or part of it): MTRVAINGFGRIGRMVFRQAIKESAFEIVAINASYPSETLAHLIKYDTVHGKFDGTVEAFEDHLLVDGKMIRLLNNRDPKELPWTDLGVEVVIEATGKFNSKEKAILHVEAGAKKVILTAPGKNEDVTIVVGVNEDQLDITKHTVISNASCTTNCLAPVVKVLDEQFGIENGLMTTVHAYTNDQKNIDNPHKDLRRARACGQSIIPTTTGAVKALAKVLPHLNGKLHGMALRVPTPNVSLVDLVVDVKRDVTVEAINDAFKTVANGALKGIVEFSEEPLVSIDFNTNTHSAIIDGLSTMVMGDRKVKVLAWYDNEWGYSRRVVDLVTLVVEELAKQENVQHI

SMILES	NAD(P)H production at 340 nm (2 mM NADP+)	NAD(P)H production at 340 nm (10 mM NAD+)
NC(=O)c1ccc[n+]([C@@H]2O[C@H](COP(=O)(O)OP(=O)(O)OC[C@H]3O[C@@H](n4cnc5c(N)ncnc54)[C@H](OP(=O)(O)O)[C@@H]3O)[C@@H](O)[C@H]2O)c1 [NADP^+]	GapB protein has enzyme activities with either NAD^+ or NADP^+ as a cofactor	
NC(=O)c1ccc[n+]([C@@H]2O[C@H](COP(=O)(O)OP(=O)(O)OC[C@H]3O[C@@H](n4cnc5c(N)ncnc54)[C@H](O)[C@@H]3O)[C@@H](O)[C@H]2O)c1 [NAD^+]		GapB protein has enzyme activities with either NAD^+ or NADP^+ as a cofactor
